This note sets out measurements from patent US6558923B2 (priority 1998, dated 2003).

Holding throughout (format): cell-based, HIV-1
For one test, the system named is NL4-3 reference virus. The test is described as follows: microbe, parasite or virus in culture. To be noted: Human immunodeficiency virus 1, NL43, read-out: Geometric-mean IC90.
In test [1] the test system is recombinant virus carrying gag-protease sequences from patient plasma.
The subject of test [2] is recombinant virus carrying protease sequences from patient plasma.

Take `CC(C)CN(C[C@@H](O)[C@H](Cc1ccccc1)NC(=O)O[C@H]1CCOC1)S(=O)(=O)c1ccc(N)cc1` [Amprenavir, amprenavir]: the IC90 – broadly, the concentration needed for an effect of 90% – in the test with NL4-3 reference virus worked out at 0.054 µM.

As to `CC(C)c1nc(CN(C)C(=O)N[C@H](C(=O)N[C@@H](Cc2ccccc2)C[C@H](O)[C@H](Cc2ccccc2)NC(=O)OCc2cncs2)C(C)C)cs1` [Ritonavir], the IC90 in the test on NL4-3 reference virus stood at 0.023 µM. Besides, the “Sensitivity correlated with genotype” value in test [1] is “reduced sensitivity”.

Regarding `Cc1c(O)cccc1C(=O)N[C@@H](CSc1ccccc1)[C@H](O)CN1C[C@H]2CCCC[C@H]2C[C@H]1C(=O)NC(C)(C)C` [Nelfinavir, nelfinavir], the concentration for an effect of 90% (IC90) in the test with NL4-3 reference virus is 0.0035 µM. The “Sensitivity correlated with genotype” value in test [1] was “reduced sensitivity”.

With `CC(C)(C)NC(=O)[C@@H]1C[C@@H]2CCCC[C@@H]2CN1C[C@@H](O)[C@H](Cc1ccccc1)NC(=O)[C@H](CC(N)=O)NC(=O)c1ccc2ccccc2n1` [Saquinavir], in the test with NL4-3 reference virus, the IC90 is 0.028 µM. For the same molecule, in test [1], the Reduction in sensitivity turned out to be 4 fold, the Sensitivity result is given as “further reduced” and the “Sensitivity correlated with genotype” value was “resistance”. In test [2], the “Change in IC90” value was “prominent increase”; the “Effect of increasing protease inhibitor concentrations on infectivity of recombinant particles” value was “clear and gradual inhibition of single-cycle particle infectivity”; the “IC90 of pre-therapy recombinant viruses compared with the other protease inhibitors” value is “always significantly lower”; the “Susceptibility of pre-therapy virus from patient B versus pre-therapy virus from patient A” value was “clearly less susceptible”.

Turning to `CC(C)(C)NC(=O)[C@@H]1CN(Cc2cccnc2)CCN1C[C@@H](O)C[C@@H](Cc1ccccc1)C(=O)N[C@H]1c2ccccc2C[C@H]1O` [Indinavir], in the test on NL4-3 reference virus, the 90% effect concentration (IC90) is 0.016 µM. Moreover, in test [1], the Reduction in sensitivity turned out to be 10 fold, the Sensitivity entry was “further reduced” and the “Sensitivity correlated with genotype” value was “reduced sensitivity”. Moreover, the “Effect of increasing protease inhibitor concentrations on infectivity of recombinant particles” value in test [2] is “clear and gradual inhibition of single-cycle particle infectivity”.
